Measured values published in ChEMBL document CHEMBL6182866, “Design, synthesis, molecular docking and ADME of novel phenylalanine derivatives as mushroom tyrosinase inhibitors” (Bioorg Med Chem Lett, 2025).
Active and inactive are the calls of the source. The calls are words filed in the database; no cut-off is given here.

Assays:
Mushroom tyrosinase = Mushroom tyrosinase (Agaricus bisporus, UniProt O42713+Q00024+C7FF04+C7FF05); test: Inhibition of mushroom tyrosinase using L-DOPA as substrate assessed as reduction in diphenolase activity; assay type: protein assay
[1] = target: T1, Mushroom tyrosinase (Agaricus bisporus) (UniProt O42713+Q00024+C7FF04+C7FF05); test: Competitive inhibition of mushroom tyrosinase using L-DOPA as substrate assessed as increase in Km with constant Vmax up to 10 uM by Lineweaver-Burk plot analysis; assay type: protein assay
[2] = target: T1, Mushroom tyrosinase (Agaricus bisporus); test: Reversible inhibition of mushroom tyrosinase using L-DOPA as substrate up to 10 uM; assay type: protein assay
[3] = target: T2, Tyrosinase (Homo sapiens) (UniProt P14679); test: Inhibition of human TYR using L-DOPA as substrate assessed as reduction in diphenolase activity by absorbance based assay
T2 sequence (whole entry): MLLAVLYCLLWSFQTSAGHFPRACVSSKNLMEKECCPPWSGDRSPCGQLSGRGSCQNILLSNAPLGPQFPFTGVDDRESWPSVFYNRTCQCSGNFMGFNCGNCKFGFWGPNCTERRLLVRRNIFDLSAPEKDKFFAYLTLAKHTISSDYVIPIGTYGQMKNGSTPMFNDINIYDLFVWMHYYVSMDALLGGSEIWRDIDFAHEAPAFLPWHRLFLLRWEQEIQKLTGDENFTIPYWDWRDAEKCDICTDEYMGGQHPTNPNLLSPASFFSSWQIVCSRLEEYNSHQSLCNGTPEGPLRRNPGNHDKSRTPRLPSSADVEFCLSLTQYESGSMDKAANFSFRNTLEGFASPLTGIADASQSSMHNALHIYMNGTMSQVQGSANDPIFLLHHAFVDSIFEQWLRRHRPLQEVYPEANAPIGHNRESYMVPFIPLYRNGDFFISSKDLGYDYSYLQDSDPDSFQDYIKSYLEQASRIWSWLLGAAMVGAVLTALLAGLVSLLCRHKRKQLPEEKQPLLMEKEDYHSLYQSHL

`O=C(OCc1cc(=O)c(O)co1)C(Cc1ccccc1)NCc1ccc(Br)cc1` (configuration not stated) was tested, and the IC50 (Mushroom tyrosinase) was 15.26 µM.
With `O=C(OCc1ccc(F)cc1)C(Cc1ccccc1)NCc1ccc([N+](=O)[O-])cc1` (configuration not stated) the IC50 (Mushroom tyrosinase) was 11.77 µM.
For `O=C(OCc1cc(=O)c(O)co1)C(Cc1ccccc1)NCc1ccc(Cl)cc1Cl` (configuration not stated), the inhibition [1] was “Active”, the inhibition [2] was “Active” and the IC50 (Mushroom tyrosinase) was 10.35 µM.
Compound `O=C(OCc1ccc(F)cc1)C(Cc1ccccc1)NCc1ccc(Cl)cc1Cl` (configuration not stated) has an IC50 (Mushroom tyrosinase) of 8.33 µM.
In the case of `O=C(OCc1ccc([N+](=O)[O-])cc1)C(Cc1ccccc1)NCc1ccc(Cl)c([N+](=O)[O-])c1` (configuration not stated), the inhibition [1] is reported as “Active”, the inhibition [3] is reported as “Dose-dependent-effect” and the inhibition [2] is reported as “Active”. It also gave an IC50 (Mushroom tyrosinase) of 4.86 µM.
Work on `O=C(OCc1ccc(F)cc1)C(Cc1ccccc1)NCc1ccc(Br)cc1` (configuration not stated) yielded an IC50 (Mushroom tyrosinase) of 16.07 µM.
`O=C(OCc1ccc([N+](=O)[O-])cc1)C(Cc1ccccc1)NCc1ccc(Cl)cc1Cl` (configuration not stated) gave an IC50 (Mushroom tyrosinase) of 6.78 µM.
In the case of `O=C(OCc1cc(=O)c(O)co1)C(Cc1ccccc1)NCc1ccccc1Cl` (configuration not stated), the IC50 (Mushroom tyrosinase) is reported as 20.64 µM.
In the case of `O=C(O)C(Cc1ccccc1)NCc1ccccc1Cl` (configuration not stated), the IC50 (Mushroom tyrosinase) is reported as > 100 µM.
Compound `CC(C)C(=O)Nc1nc(-c2ccc(O)cc2O)cs1` has an IC50 (Mushroom tyrosinase) of 48.12 µM.
`O=C(OCc1cc(=O)c(O)co1)C(Cc1ccccc1)NCc1ccc(Cl)c([N+](=O)[O-])c1` (configuration not stated) was tested, and the IC50 (Mushroom tyrosinase) was 11.65 µM.
For `O=C(O)C(Cc1ccccc1)NCc1ccc(Cl)c([N+](=O)[O-])c1` (configuration not stated), the IC50 (Mushroom tyrosinase) was > 100 µM.
`O=C(O)C(Cc1ccccc1)NCc1ccc([N+](=O)[O-])cc1` (configuration not stated) showed an IC50 (Mushroom tyrosinase) of 42.4 µM.
Compound `O=C(OCc1ccc([N+](=O)[O-])cc1)C(Cc1ccccc1)NCc1ccccc1Cl` (configuration not stated) has an IC50 (Mushroom tyrosinase) of 16.99 µM.
Work on `O=C(OCc1ccc(F)cc1)C(Cc1ccccc1)NCc1ccc(Cl)c([N+](=O)[O-])c1` (configuration not stated) yielded an IC50 (Mushroom tyrosinase) of 6.11 µM.
With `O=C(O)C(Cc1ccccc1)NCc1ccc(Cl)cc1Cl` (configuration not stated) the IC50 (Mushroom tyrosinase) was > 100 µM.
For `O=c1cc(CCl)occ1O`, the IC50 (Mushroom tyrosinase) was 33.05 µM.
`O=C(OCc1ccc(F)cc1)C(Cc1ccccc1)NCc1ccccc1Cl` (configuration not stated) was tested, and the IC50 (Mushroom tyrosinase) was 18.2 µM.
`O=C(OCc1ccc([N+](=O)[O-])cc1)C(Cc1ccccc1)NCc1ccc([N+](=O)[O-])cc1` (configuration not stated) gave an IC50 (Mushroom tyrosinase) of 10.58 µM.
In the case of `O=C(OCc1cc(=O)c(O)co1)C(Cc1ccccc1)NCc1ccc([N+](=O)[O-])cc1` (configuration not stated), the IC50 (Mushroom tyrosinase) is reported as 13.43 µM.
`O=C(OCc1ccc([N+](=O)[O-])cc1)C(Cc1ccccc1)NCc1ccc(Br)cc1` (configuration not stated) gave an IC50 (Mushroom tyrosinase) of 11.95 µM.
`O=C(O)C(Cc1ccccc1)NCc1ccc(Br)cc1` (configuration not stated) was tested, and the IC50 (Mushroom tyrosinase) was 31.05 µM.
